{
  "source": "paper doi:10.1101/2025.07.20.665728",
  "about": "(bioRxiv, 2025)",
  "type_in_all_cases": "cell-based",
  "key": {"MAIT cells in human PBMC": {"tested_on": "MAIT cells in human PBMC", "assay": "MAIT cell proliferation in CTV-labeled PBMCs", "conditions": "day 7, 5-OP-RU 10 μM, RF ligands 100 μM"}, "THP-1.MR1 cells [1]": {"tested_on": "THP-1.MR1 cells", "assay": "Cell surface MR1 quantification by flow cytometry, THP-1.MR1", "conditions": "THP-1.MR1, 3 h", "protocol": "Next, we investigated whether these RF catabolites can impact MR1 cell surface expression in both MR1-transduced B cell lymphoblastoid (C1R.MR1) and monocytic (THP-1.MR1) cell lines (Fig. 2). Here, the cells were pulsed with 1–200 μM of RF or the RF catabolites, and the cell surface levels of MR1 were quantified by flow cytometry ([Awad et al., 2020a]; [Keller et al., 2017]). Cell viability was unaffected, even at highest concentrations of the catabolites, as depicted in Fig. S2A. […] No impact on the MR1 surface level was observed when the parental C1R cells were incubated with these RF catabolites, probably due to the low basal surface MR1 level whose further reduction becomes undetectable by the anti-MR1 antibody (Fig. S2B). The MR1 downregulation seen in C1R.MR1 cells was specific to MR1 as the level of HLA-A*02:01 was not affected after pulsing C1R-A2 with the ligands (Fig. S2C). […]\n(§1) The level of MR1 expressed on the cell surface was measured after the exposure to the investigated ligands as previously described ([Awad et al., 2020a]; [Wang et al., 2022a]). […] The PE fluorescence intensity reflects the surface MR1 level. The data was acquired with an LSRFortessa X-20 (BD Biosciences) and Diva software (BD Biosciences) and analyzed using FlowJo software (BD Biosciences)."}, "C1R.MR1^R9H cells": {"tested_on": "C1R.MR1^R9H cells", "assay": "Cell surface MR1 R9H quantification, C1R.MR1^R9H", "text": "We then tested the effect of the RF catabolites on the expression of two mutant versions of MR1 termed MR1^R9H ([Howson et al., 2020]) and MR1^K43A ([Reantragoon et al., 2013]). First, we tested the MR1^R9H mutant ([Howson et al., 2020]) which represents a rare, natural human polymorph. […] When C1R. […] Next, we tested sought to understand how the previously characterised Lys43A mutation affects ligand binding. […] While this is in line with the ability of these ligands to bind MR1, the reason for MR1^K43A cell surface accumulation is less clear. The most likely explanation is that these ligands bind ER-resident MR1^K43A, in line with our data using wild-type MR1; however, because the K43A mutation results in spontaneous MR1 surface egress, the presence of these stabilising ligands promotes enhanced trafficking and/or retention at the cell surface. We cannot rule out however that the ligands may also bind directly to surface MR1^K43A and slow down the recycling from cell surface.\nas §1"}, "C1R.MR1 cells": {"tested_on": "C1R.MR1 cells", "assay": "Endo H treatment and western blot of intracellular MR1", "conditions": "C1R.MR1, 16 h; RF and catabolites 100 μM, Ac-6-FP 10 μM", "protocol": "The downregulation of MR1 on the cell surface by the RF catabolites could be due to the depletion of the intracellular ER-resident MR1 pool, or by retention of MR1 in the ER, as shown for the DB28 ligand ([Salio et al., 2020]). To investigate this, C1R.MR1 cells were treated for 16 h with 100 μM of RF or RF catabolites, conditions which induce MR1 downregulation (Fig. 3A). Cells were lysed, and treated with endoglycosidase (Endo) H, to distinguish molecules that remain within the ER from those that have trafficked to the cell surface ([McWilliam et al., 2016]), then MR1 levels were assessed by immunoblotting (Fig. 3A).\nFigure 3. […] S, Endo H–susceptible MR1; R, Endo H–resistant MR1. The Endo H–susceptible MR1 and Endo H–resistant MR1 fractions were quantified in at least two independent experiments. (b) Intracellular total MR1 level was also measured in C1R.MR1 cells by flow cytometry after treating the cells with the indicated ligands (100 μM) for 16h followed by permeabilization and staining with anti-MR1-PE (8F2.F9). Shown are the overlay histograms (top) and a bar chart depicting the geometric mean fluorescence intensity (gMFI) fold change of intracellular MR1 level (bottom) from three independent experiments performed in duplicates, with standard error (SEM) represented by the error bars. […]"}, "THP-1.MR1 cells [2]": {"tested_on": "THP-1.MR1 cells", "assay": "Competition with Ac-6-FP-induced MR1 upregulation, THP-1.MR1", "conditions": "1–200 μM overnight, then 10 μM Ac-6-FP 3 h"}},
  "data": [
    {"compound": "Cc1cc2nc3[nH]c(=O)[nH]c(=O)c3nc2cc1C", "note": "[Lumichrome, 7,8-dimethylalloxazine]", "values": [
      {"measurement": "MAIT cell proliferation", "setting": "MAIT cells in human PBMC", "result": "significantly reduced MAIT cell proliferation"}
    ]},
    {"compound": "Cc1cc2nc3c(=O)[nH]c(=O)nc-3n(C)c2cc1C", "note": "[Lumiflavin]", "values": [
      {"measurement": "MR1 cell surface expression", "setting": "THP-1.MR1 cells [1]", "result": "downregulated MR1"}
    ]},
    {"compound": "Cc1cc2nc3c(=O)[nH]c(=O)nc-3n(C[C@H](O)[C@H](O)[C@H](O)CO)c2cc1C", "note": "[RF, Riboflavin]", "values": [
      {"measurement": "MR1^R9H surface level", "setting": "C1R.MR1^R9H cells", "result": "did not deviate from the background level"},
      {"measurement": "Endo H-resistant MR1", "setting": "C1R.MR1 cells", "result": "Neither RF nor its catabolites induced any Endo H-resistant MR1"},
      {"measurement": "effect on Ac-6-FP-induced cell surface upregulation of MR1", "setting": "THP-1.MR1 cells [2]", "result": "did not modulate"}
    ]}
  ]
}
